Measurements taken from ChEMBL document CHEMBL1201862, “PubChem BioAssay data set” (2004).
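All cell lines were grown in 96-well plates and treated with compound for 48 hours. GI50 marks 50% less growth.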 Activity calls are given as the source filed them. Cut-off read from the data, not from the text of the source: active = GI50 up to about 1.1 µM and inactive = higher.

Legend:
Experiment in all cases: growth of human tumour cells (NCI), 48 h
RXF 631 = test system: RXF 631
LXFL 529 = test system: LXFL 529
DLD-1 = test system: DLD-1
SNB-78 = test system: SNB-78
XF498 = test system: XF498
KM-20L2 = test system: KM-20L2
DMS-273 = test system: DMS-273
M19-MEL = test system: M19-MEL
HOP-18 = test system: HOP-18

Compound | GI50 (RXF 631) | GI50 (LXFL 529) | GI50 (DLD-1) | GI50 (SNB-78) | GI50 (XF498) | GI50 (KM-20L2) | GI50 (DMS-273) | GI50 (M19-MEL) | GI50 (HOP-18)
N#CCc1ccc(/C(C#N)=C2/OC(=N)C(c3ccc(CC#N)cc3)C2=O)cc1 (stereo not given) | > 100 µM (inactive) | > 100 µM (inactive) | > 100 µM (inactive) | > 100 µM (inactive) | > 100 µM (inactive) | > 100 µM (inactive) | > 100 µM (inactive) | > 100 µM (inactive) | 
CC(=O)Nc1ccc(-c2nnc(SCC(=O)Nc3ccccc3Cl)o2)cc1 |  | > 100 µM (inactive) | > 100 µM (inactive) | > 100 µM (inactive) |  | > 100 µM (inactive) | > 100 µM (inactive) | > 100 µM (inactive) | 87.7 µM (inactive)
COC1/C=C\C=C(/C)C(=O)NC2=CC(=O)C(NCCCl)=C(CC(C)CC(OC)C(O)C(C)/C=C(/C)C1OC(N)=O)C2=O (stereo not given) |  | 0.0298 µM (active) | 0.0266 µM (active) | 0.655 µM (active) | 0.659 µM (active) | 0.0134 µM (active) | 0.053 µM (active) | 0.0366 µM (active) | 0.0308 µM (active)
O=c1[c-](-c2ccccc2)[se]c(-c2ccccc2)[n+]1-c1ccccc1 | 13.6 µM (inactive) | 13.5 µM (inactive) | 2 µM (inactive) | 3.81 µM (inactive) |  |  | 19.1 µM (inactive) | 7.59 µM (inactive) | 11.5 µM (inactive)
Cc1cccc2nc3cccc(C(=O)NCCN(C)C)c3nc12 |  |  | 0.444 µM (active) | 0.802 µM (active) |  |  | 0.42 µM (active) | 0.675 µM (active) | 2.4 µM (inactive)
COC(=O)C1=C(c2ccc3c(c2)OCO3)O[C@H](c2ccc3c(c2)OCO3)[C@H]1COC(C)=O |  | 32.3 µM (inactive) | 35.7 µM (inactive) | 66.1 µM (inactive) | 41.8 µM (inactive) | 71.1 µM (inactive) | 56.2 µM (inactive) | 33.3 µM (inactive) | 36.6 µM (inactive)
Cc1ccc(C(=O)OC(C)C)cc1/N=N/N(C)C |  | 66.5 µM (inactive) | > 100 µM (inactive) | 55.3 µM (inactive) |  | 55.5 µM (inactive) | 56.5 µM (inactive) | 97.7 µM (inactive) | 
O=C(Nc1ccc(Cl)cc1Cl)OC(Cn1cncn1)c1ccc(Cl)cc1Cl (stereo not given) | 18.2 µM (inactive) | 16.2 µM (inactive) | 18.5 µM (inactive) | 15.6 µM (inactive) | 14.7 µM (inactive) | 16.5 µM (inactive) | 17.4 µM (inactive) | 17.1 µM (inactive) | 23.8 µM (inactive)
CSc1s[s+]c(SC)c1[O-] | 19.2 µM (inactive) | 18.7 µM (inactive) | 16.5 µM (inactive) | 55.1 µM (inactive) | 45.8 µM (inactive) | 80.7 µM (inactive) | 27.4 µM (inactive) | 15.5 µM (inactive) | > 100 µM (inactive)
NC1=NN(c2ccccc2)C(=O)C1/C(=N\NC(=O)c1cc2ccccc2cc1O)C(=O)Nc1ccc(Cl)c(Cl)c1 (stereo not given) |  | 34.4 µM (inactive) | 30.5 µM (inactive) | 23.8 µM (inactive) | 25.1 µM (inactive) | 32.5 µM (inactive) | 11.6 µM (inactive) |  | 31.6 µM (inactive)
O=C1C=C(Nc2ccc(Br)cc2)c2ccccc2C1=O |  | 12.5 µM (inactive) |  |  |  | 23 µM (inactive) | 12.2 µM (inactive) | 1.73 µM (inactive) | 
COC(=O)Cc1cc(OC)c(OC)cc1Br |  | > 100 µM (inactive) | > 100 µM (inactive) | > 100 µM (inactive) |  | > 100 µM (inactive) |  | > 100 µM (inactive) | 
C[N+](C)(C)CC(=O)N/N=C/c1oc(-c2cccc([N+](=O)[O-])c2)c(-c2cccc([N+](=O)[O-])c2)c1[N+](=O)[O-] | 49.7 µM (inactive) |  | 64.4 µM (inactive) |  |  | > 100 µM (inactive) |  | 38.5 µM (inactive) | 
CCCCCCCCCc1cc(=O)c2c(O)cccc2o1 | 65.6 µM (inactive) | 39.2 µM (inactive) | 61.8 µM (inactive) | 53 µM (inactive) | 31.2 µM (inactive) |  | 41.8 µM (inactive) | > 10 µM (inactive) | > 100 µM (inactive)
CO[C@@H]1[C@H](OC(=O)NC(=O)CCl)CC[C@]2(CO2)[C@H]1[C@@]1(C)O[C@@H]1CC=C(C)C [O-CHLOROACETYLCARBAMOYLFUMAGILLOL] | 1.67 µM (inactive) | 1.78 µM (inactive) | 8.83 µM (inactive) | > 10 µM (inactive) | 6.35 µM (inactive) | 16.6 µM (inactive) | 7.11 µM (inactive) | 6.49 µM (inactive) | > 10 µM (inactive)
Cc1cc2c(cc1C)[n+]([O-])c(C(=O)C/C(=N/NC(=O)CC#N)C(=O)Nc1ccccc1C(F)(F)F)c(C)[n+]2[O-] | 16.9 µM (inactive) | 45.6 µM (inactive) |  | 2.59 µM (inactive) | 82.2 µM (inactive) | 37.5 µM (inactive) | 53.6 µM (inactive) | 43.2 µM (inactive) | > 100 µM (inactive)
CC(=O)Nc1ccc(Cl)c(Cl)c1 |  | > 100 µM (inactive) | > 100 µM (inactive) | > 100 µM (inactive) |  | > 100 µM (inactive) | > 100 µM (inactive) | > 100 µM (inactive) | 
COc1cc(OC)cc(-c2cc(O)c3cc4c(cc3n2)OCO4)c1 |  | 0.211 µM (active) | 0.311 µM (active) | 0.295 µM (active) | 0.152 µM (active) | 0.217 µM (active) | 0.306 µM (active) | 0.321 µM (active) | 16.3 µM (inactive)
NC1=NS(=O)(=O)Nc2[nH]c(-c3ccccc3)nc21 |  | > 100 µM (inactive) | > 100 µM (inactive) | > 100 µM (inactive) | > 100 µM (inactive) | > 100 µM (inactive) | > 100 µM (inactive) | > 100 µM (inactive) | > 100 µM (inactive)
CC(=O)c1c(P(=O)(OC(C)C)OC(C)C)nn(-c2ccc([N+](=O)[O-])cc2)c1C |  | > 100 µM (inactive) | > 100 µM (inactive) | > 100 µM (inactive) | > 100 µM (inactive) | > 100 µM (inactive) | > 100 µM (inactive) | > 100 µM (inactive) | 
CC(C)N(C(=O)C12C3C4C1C1C2C3C41C(=O)O)C(C)C (stereo not given) |  | > 100 µM (inactive) | > 100 µM (inactive) |  |  | > 100 µM (inactive) | > 100 µM (inactive) |  | 
